These results are taken from US10758534B2 (Vertex Pharmaceuticals Incorporated, priority 2014, dated 2020).

In the experiment the target is T1, F508del (Homo sapiens, UniProt P13569, DEL508-508).
T1 construct: expressed in transfected cells
T1 sequence (P13569 with tags, fused parts or gaps DEL508-508): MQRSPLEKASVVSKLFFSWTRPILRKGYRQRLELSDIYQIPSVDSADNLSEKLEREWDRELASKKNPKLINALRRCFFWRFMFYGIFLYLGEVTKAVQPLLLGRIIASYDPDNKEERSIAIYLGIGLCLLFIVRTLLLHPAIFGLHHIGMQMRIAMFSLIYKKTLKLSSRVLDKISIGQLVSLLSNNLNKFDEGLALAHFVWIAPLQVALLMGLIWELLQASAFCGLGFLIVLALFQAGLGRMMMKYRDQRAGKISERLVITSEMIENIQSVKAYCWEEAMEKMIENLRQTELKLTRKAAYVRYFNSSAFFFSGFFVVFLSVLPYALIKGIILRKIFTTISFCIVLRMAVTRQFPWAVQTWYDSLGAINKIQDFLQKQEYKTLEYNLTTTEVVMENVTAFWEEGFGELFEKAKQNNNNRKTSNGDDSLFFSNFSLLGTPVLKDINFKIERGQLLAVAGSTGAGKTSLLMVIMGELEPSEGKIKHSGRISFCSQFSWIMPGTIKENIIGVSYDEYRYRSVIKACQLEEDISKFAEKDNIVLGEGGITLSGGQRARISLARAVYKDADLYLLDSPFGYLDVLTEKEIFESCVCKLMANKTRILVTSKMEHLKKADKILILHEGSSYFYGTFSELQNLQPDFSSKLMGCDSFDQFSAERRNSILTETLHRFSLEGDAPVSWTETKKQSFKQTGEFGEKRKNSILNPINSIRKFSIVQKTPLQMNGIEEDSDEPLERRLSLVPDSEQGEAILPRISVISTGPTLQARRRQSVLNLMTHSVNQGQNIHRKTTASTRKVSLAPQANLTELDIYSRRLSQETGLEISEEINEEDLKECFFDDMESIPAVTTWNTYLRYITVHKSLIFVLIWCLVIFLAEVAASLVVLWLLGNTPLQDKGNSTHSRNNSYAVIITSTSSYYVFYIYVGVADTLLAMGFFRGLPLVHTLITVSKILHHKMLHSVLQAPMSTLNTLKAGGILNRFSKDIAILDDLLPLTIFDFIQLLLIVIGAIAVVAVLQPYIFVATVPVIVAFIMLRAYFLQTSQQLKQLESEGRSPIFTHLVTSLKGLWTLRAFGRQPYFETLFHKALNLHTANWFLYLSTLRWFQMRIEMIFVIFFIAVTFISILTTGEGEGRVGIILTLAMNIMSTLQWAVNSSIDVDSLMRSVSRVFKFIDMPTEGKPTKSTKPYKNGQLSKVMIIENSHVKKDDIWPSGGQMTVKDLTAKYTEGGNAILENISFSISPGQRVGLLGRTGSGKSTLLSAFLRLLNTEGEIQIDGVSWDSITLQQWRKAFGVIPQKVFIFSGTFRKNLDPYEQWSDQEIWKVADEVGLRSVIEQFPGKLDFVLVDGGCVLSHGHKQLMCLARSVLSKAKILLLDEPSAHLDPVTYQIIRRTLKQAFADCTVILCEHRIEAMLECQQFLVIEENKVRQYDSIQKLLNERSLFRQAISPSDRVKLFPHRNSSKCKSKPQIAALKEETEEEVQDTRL
Kind of experiment: Protocol 1: membrane potential optical assay (FLIPR III, voltage sensing dye), identification of potentiator compounds. The format is cell-based. The following applies: Table 3, compounds of Table 1. The method in brief: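 Read-out: change in voltage-sensing dye fluorescence (FLIPR III) as a measure of F508del conductance. Temperature-corrected (27° C, 24 hrs) NIH 3T3 cells expressing F508del are pretreated with potentiators, dye-loaded, then stimulated with forskolin under a chloride ion gradient using chloride-free gluconate bath.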
Turning to `CC(C)COc1cc(F)cc(-c2ccc(C(=O)NS(=O)(=O)c3cccc(N)n3)c(N3CCC4(CC4)C3)n2)c1` [Compound 1061, N-[(6-amino-2-pyridyl)sulfonyl]-2-(6-azaspiro[2.4]heptan-6-yl)-6-(3-fluoro-5-isobutoxy-phenyl)pyridine-3-carboxamide], the EC30 entry was “+++ (“+++” means <3 uM)”.
For `Cc1cc(C)c(Oc2nc(-c3ccc(C(C)(C)O)cc3)ccc2C(=O)NS(=O)(=O)c2cccc(N)n2)c(C)c1` [Compound 1147, N-[(6-amino-2-pyridyl)sulfonyl]-6-[4-(1-hydroxy-1-methyl-ethyl)phenyl]-2-(2,4,6-trimethylphenoxy)pyridine-3-carboxamide] the value was “++ (“++” means between 3 uM and 10 uM)”; for `CC(C)COc1cc(F)cc(-c2ccc(C(=O)NS(=O)(=O)c3cccc(N)n3)c(OC3CC3)n2)c1` [Compound 1446, N-[(6-amino-2-pyridyl)sulfonyl]-2-(cyclopropoxy)-6-(3-fluoro-5-isobutoxy-phenyl)pyridine-3-carboxamide], “+++ (“+++” means <3 uM)”; for `Cc1cc(C)c(Oc2nc(C)c(C)cc2C(=O)NS(=O)(=O)c2cccc(N)n2)c(C)c1` [Compound 841, N-[(6-amino-2-pyridyl)sulfonyl]-5,6-dimethyl-2-(2,4,6-trimethylphenoxy)pyridine-3-carboxamide], “+++ (“+++” means <3 uM)”.
In the case of `Cc1cc(C)c(Oc2nc(N3CCCC3C)c(C)cc2C(=O)NS(=O)(=O)c2cccc(N)n2)c(C)c1` (stereo not shown) [Compound 1516, N-[(6-amino-2-pyridyl)sulfonyl]-5-methyl-6-(2-methylpyrrolidin-1-yl)-2-(2,4,6-trimethylphenoxy)pyridine-3-carboxamide] it was “+++ (“+++” means <3 uM)”.
In the case of `COc1cc(F)c(-c2ccc(C(=O)NS(=O)(=O)c3cccc(N)n3)c(Oc3c(C)cc(C)cc3C)n2)cc1F` [Compound 984, N-[(6-amino-2-pyridyl)sulfonyl]-6-(2,5-difluoro-4-methoxy-phenyl)-2-(2,4,6-trimethylphenoxy)pyridine-3-carboxamide] it was “+++ (“+++” means <3 uM)”; in that of `C[C@@H]1CN(c2nc(-c3cc(F)cc(F)c3F)ccc2C(=O)NS(=O)(=O)c2ccc[nH]c2=O)C(C)(C)C1` [Compound 1837, N-[(2-oxo-1H-pyridin-3-yl)sulfonyl]-6-(2,3,5-trifluorophenyl)-2-[(4S)-2,2,4-trimethylpyrrolidin-1-yl]pyridine-3-carboxamide], “+++ (“+++” means <3 uM)”.
Take `Cc1ccc(C(=O)NS(=O)(=O)c2cccc(N)n2)c(N2C[C@@H](C)CC2(C)C)n1` [Compound 1420, N-[(6-amino-2-pyridyl)sulfonyl]-6-methyl-2-[(4S)-2,2,4-trimethylpyrrolidin-1-yl]pyridine-3-carboxamide]: the EC30 result was “++ (“++” means between 3 uM and 10 uM)”.
Turning to `Cc1ccc(-c2ccc(C(=O)NS(=O)(=O)c3ccc[nH]c3=O)c(Oc3ccc(C)cc3C)n2)cc1` [Compound 1129, 2-(2,4-dimethylphenoxy)-N-[(2-oxo-1H-pyridin-3-yl)sulfonyl]-6-(p-tolyl)pyridine-3-carboxamide], the EC30 result is “++ (“++” means between 3 uM and 10 uM)”.
In the case of `CCOCCOCCOc1cc(-c2ccc(C(=O)NS(=O)(=O)c3cccc(N)n3)c(N3C[C@@H](C)CC3(C)C)n2)cc(C)n1` [Compound 1812, N-[(6-amino-2-pyridyl)sulfonyl]-6-[2-[2-(2-ethoxyethoxy)ethoxy]-6-methyl-4-pyridyl]-2-[(4S)-2,2,4-trimethylpyrrolidin-1-yl]pyridine-3-carboxamide] it was “++ (“++” means between 3 uM and 10 uM)”; in that of `COc1ncc(-c2ccc(C(=O)NS(=O)(=O)c3cc[nH]n3)c(Oc3ccc(C)cc3C)n2)cc1C` [Compound 892, 2-(2,4-dimethylphenoxy)-6-(6-methoxy-5-methyl-3-pyridyl)-N-(1H-pyrazol-3-ylsulfonyl)pyridine-3-carboxamide], “++ (“++” means between 3 uM and 10 uM)”.
For `CCOc1cccc2c1CN(Cc1c(C)cc(C)cc1C)C2(C)C(=O)NS(=O)(=O)c1cccc(NC(C)=O)n1` (stereo not shown) [Compound 1415, N-[(6-acetamido-2-pyridyl)sulfonyl]-4-ethoxy-1-methyl-2-[(2,4,6-trimethylphenyl)methyl]isoindoline-1-carboxamide] the value was “+++ (“+++” means <3 uM)”; for `CC(C)COc1cc(F)cc(-c2ccc(C(=O)NS(=O)(=O)c3cccc(N)n3)c(OC3CC4CCC3C4)n2)c1` (stereo not shown) [Compound 1227, N-[(6-amino-2-pyridyl)sulfonyl]-6-(3-fluoro-5-isobutoxy-phenyl)-2-norbornan-2-yloxy-pyridine-3-carboxamide], “+++ (“+++” means <3 uM)”; for `CCOc1ccc(-c2ccc(C(=O)NS(=O)(=O)c3nccnc3N)c(-c3ccc(C)cc3)n2)cc1` [Compound 819, N-(3-aminopyrazin-2-yl)sulfonyl-6-(4-ethoxyphenyl)-2-(p-tolyl)pyridine-3-carboxamide], “+ (“+” means greater than 10 uM)”.
In the case of `CC(C)COc1cc(F)cc(-c2ccc(C(=O)NS(=O)(=O)c3ccn[nH]3)c(N3CC(C)CC3(C)C)n2)c1` (stereo not shown) [Compound 904, 6-(3-fluoro-5-isobutoxy-phenyl)-N-(1H-pyrazol-5-ylsulfonyl)-2-(2,2,4-trimethylpyrrolidin-1-yl)pyridine-3-carboxamide] it was “+++ (“+++” means <3 uM)”; in that of `CC(C)COc1cc(F)cc(-c2ccc(C(=O)NS(=O)(=O)c3cccc(N)n3)c(OCCC3CCOCC3)n2)c1` [Compound 1579, N-[(6-amino-2-pyridyl)sulfonyl]-6-(3-fluoro-5-isobutoxy-phenyl)-2-(2-tetrahydropyran-4-ylethoxy)pyridine-3-carboxamide], “+++ (“+++” means <3 uM)”.
With `COc1ccc(/C=C/c2cc(C(=O)NS(=O)(=O)c3cccc(N)n3)c(N3C[C@@H](C)CC3(C)C)nc2C(C)(C)C)cc1` [Compound 1535, N-[(6-amino-2-pyridyl)sulfonyl]-6-tert-butyl-5-[(E)-2-(4-methoxyphenyl)vinyl]-2-[(4S)-2,2,4-trimethylpyrrolidin-1-yl]pyridine-3-carboxamide], the EC30 entry is reported as “+++ (“+++” means <3 uM)”.
For the compound `Cc1cc(C)c(Oc2nc(C3(C)CC3)ccc2C(=O)NS(=O)(=O)c2cccc(N)c2)c(C)c1` [Compound 826, N-(3-aminophenyl)sulfonyl-6-(1-methylcyclopropyl)-2-(2,4,6-trimethylphenoxy)pyridine-3-carboxamide], the EC30 result is listed as “+++ (“+++” means <3 uM)”.
For `C[C@@H]1CN(c2nc3c(cc2C(=O)NS(=O)(=O)c2cccc(N)n2)CCC3)C(C)(C)C1` [Compound 1386, N-[(6-amino-2-pyridyl)sulfonyl]-2-[(4S)-2,2,4-trimethylpyrrolidin-1-yl]-6,7-dihydro-5H-cyclopenta[b]pyridine-3-carboxamide], the EC30 result was “++ (“++” means between 3 uM and 10 uM)”.
`COc1cc(C)c(-c2ccc(C(=O)NS(=O)(=O)c3cccc(N)n3)c(N3CC(C)CC3(C)C)n2)cc1C` (stereo not shown) [Compound 1259, N-[(6-amino-2-pyridyl)sulfonyl]-6-(4-methoxy-2,5-dimethyl-phenyl)-2-(2,2,4-trimethylpyrrolidin-1-yl)pyridine-3-carboxamide]: the EC30 result is reported as “+++ (“+++” means <3 uM)”.
Regarding `CC(C)Oc1ccc(-c2ccc(C(=O)NS(=O)(=O)c3cccc(N)n3)c(N3C(C)CCC3(C)C)n2)cn1` (stereo not shown) [Compound 1040, N-[(6-amino-2-pyridyl)sulfonyl]-6-(6-isopropoxy-3-pyridyl)-2-(2,2,5-trimethylpyrrolidin-1-yl)pyridine-3-carboxamide], the EC30 entry is “+++ (“+++” means <3 uM)”.
For `COC1CCN(c2nc(C(C)(C)C)ccc2C(=O)NS(=O)(=O)c2cccc(N)n2)CC1` [Compound 1164, N-[(6-amino-2-pyridyl)sulfonyl]-6-tert-butyl-2-(4-methoxy-1-piperidyl)pyridine-3-carboxamide] the value was “++ (“++” means between 3 uM and 10 uM)”; for `COc1ccc(-c2ccc(C(=O)NS(=O)(=O)c3ccc[nH]c3=O)c(Oc3c(C)cc(C)cc3C)n2)cc1` [Compound 980, 6-(4-methoxyphenyl)-N-[(2-oxo-1H-pyridin-3-yl)sulfonyl]-2-(2,4,6-trimethylphenoxy)pyridine-3-carboxamide], “++ (“++” means between 3 uM and 10 uM)”; for `CC1CN(c2ncccc2C(=O)NS(=O)(=O)c2cccc(OCc3ccccc3F)n2)C(C)(C)C1` (stereo not shown) [Compound 1798, N—[[6-[(2-fluorophenyl)methoxy]-2-pyridyl]sulfonyl]-2-(2,2,4-trimethylpyrrolidin-1-yl)pyridine-3-carboxamide], “+++ (“+++” means <3 uM)”.
In the case of `Cc1cc(C)c(CN2Cc3ccccc3C2(C)C(=O)NS(=O)(=O)c2cccc(N)n2)c(C)c1` (stereo not shown) [Compound 895, N-[(6-amino-2-pyridyl)sulfonyl]-1-methyl-2-[(2,4,6-trimethylphenyl)methyl]isoindoline-1-carboxamide] it was “+++ (“+++” means <3 uM)”; in that of `CC(=O)NC1CCN(S(=O)(=O)NC(=O)c2ccc(-c3cc(F)cc(OCC(C)C)c3)nc2N2CC(C)CC2(C)C)C1` (stereo not shown) [Compound 1391, N-(3-acetamidopyrrolidin-1-yl)sulfonyl-6-(3-fluoro-5-isobutoxy-phenyl)-2-(2,2,4-trimethylpyrrolidin-1-yl)pyridine-3-carboxamide], “+++ (“+++” means <3 uM)”.
As for `COc1ccc(-c2cnc(N3CC(C)CC3(C)C)c(C(=O)NS(=O)(=O)c3cccc(N)n3)c2)cc1` (stereo not shown) [Compound 1792, N-[(6-amino-2-pyridyl)sulfonyl]-5-(4-methoxyphenyl)-2-(2,2,4-trimethylpyrrolidin-1-yl)pyridine-3-carboxamide], the EC30 entry was “+++ (“+++” means <3 uM)”.
For `CCOC(=O)C1CC=C(c2ccc(C(=O)NS(=O)(=O)c3cccc(N)n3)c(Oc3c(C)cc(C)cc3C)n2)CC1` (stereo not shown) [Compound 1432, ethyl 4-[5-[(6-amino-2-pyridyl)sulfonylcarbamoyl]-6-(2,4,6-trimethylphenoxy)-2-pyridyl]cyclohex-3-ene-1-carboxylate] the value was “+++ (“+++” means <3 uM)”.
